Literature values, collected in article PMC5238771 (OncoTargets and therapy, 2017).

Tests used:
[1] = tested on: SMMC-7721 human hepatocellular carcinoma cell line; settings: SMMC-7721 cells, dose-dependent and time-dependent
[2] = tested on: CYP3A4 enzyme; settings: both in vitro and in vivo
[3] = tested on: HepG2 human hepatocellular carcinoma cell line; settings: HepG2 cells, dose-dependent and time-dependent

C[C@]12CC[C@H](O)C[C@H]1CC[C@@H]1[C@@H]2CC[C@]2(C)[C@@H](c3ccc(=O)oc3)CC[C@]12O [bufalin]
Inhibition of proliferation [1]: inhibited the proliferation
Inhibition of CYP3A4 enzyme [2]: modest but significant inhibition
Inhibition of proliferation [3]: inhibited the proliferation
